According to ChEMBL document CHEMBL1147418, “Rational design and synthesis of selective BACE-1 inhibitors” (Bioorg Med Chem Lett, 2004):

What was measured:
[1] = molecular target: T1, Renin (Homo sapiens, UniProt P00797); experiment: Compound was tested for inhibition of human renin
T1 sequence (P00797 whole entry): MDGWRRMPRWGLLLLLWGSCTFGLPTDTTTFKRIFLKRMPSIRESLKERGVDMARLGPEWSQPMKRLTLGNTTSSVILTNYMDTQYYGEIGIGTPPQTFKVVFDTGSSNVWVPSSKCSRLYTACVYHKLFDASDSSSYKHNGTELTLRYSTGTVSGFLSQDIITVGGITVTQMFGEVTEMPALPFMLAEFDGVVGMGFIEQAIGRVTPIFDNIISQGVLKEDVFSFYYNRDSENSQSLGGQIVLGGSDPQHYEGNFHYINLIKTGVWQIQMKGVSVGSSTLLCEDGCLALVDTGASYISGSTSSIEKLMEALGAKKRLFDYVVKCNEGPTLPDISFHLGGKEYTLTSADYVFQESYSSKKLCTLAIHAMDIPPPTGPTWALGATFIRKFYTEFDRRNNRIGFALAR

[2] = molecular target: T2, Beta-secretase 1 (Homo sapiens, UniProt P56817); experiment: Tested for inhibition of Beta-secretase 1 (BACE 1) expressed in insect cell using baculovirus
T2 sequence (P56817 whole entry): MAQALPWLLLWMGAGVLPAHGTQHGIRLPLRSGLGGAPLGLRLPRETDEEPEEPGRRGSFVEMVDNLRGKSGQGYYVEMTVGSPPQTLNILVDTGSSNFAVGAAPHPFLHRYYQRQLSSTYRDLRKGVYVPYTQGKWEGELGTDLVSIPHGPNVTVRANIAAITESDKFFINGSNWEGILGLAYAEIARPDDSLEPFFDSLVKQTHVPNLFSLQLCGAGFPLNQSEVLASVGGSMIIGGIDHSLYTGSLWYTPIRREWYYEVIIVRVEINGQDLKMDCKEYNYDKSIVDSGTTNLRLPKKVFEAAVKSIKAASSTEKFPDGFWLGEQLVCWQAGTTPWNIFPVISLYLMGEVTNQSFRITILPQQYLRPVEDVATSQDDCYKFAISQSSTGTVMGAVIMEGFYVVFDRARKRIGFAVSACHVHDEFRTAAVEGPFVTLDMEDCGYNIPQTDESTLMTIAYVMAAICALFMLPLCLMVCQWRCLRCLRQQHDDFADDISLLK

[3] = molecular target: Cathepsin D (Homo sapiens, UniProt P07339); experiment: Compound was tested for inhibition of cathepsin D
Cathepsin D, sequence (P07339 65-162 limits assumed): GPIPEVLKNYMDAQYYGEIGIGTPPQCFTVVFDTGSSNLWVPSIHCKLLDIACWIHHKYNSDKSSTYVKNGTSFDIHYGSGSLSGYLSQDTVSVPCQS
Cathepsin D, sequence (P07339 169-412 limits assumed): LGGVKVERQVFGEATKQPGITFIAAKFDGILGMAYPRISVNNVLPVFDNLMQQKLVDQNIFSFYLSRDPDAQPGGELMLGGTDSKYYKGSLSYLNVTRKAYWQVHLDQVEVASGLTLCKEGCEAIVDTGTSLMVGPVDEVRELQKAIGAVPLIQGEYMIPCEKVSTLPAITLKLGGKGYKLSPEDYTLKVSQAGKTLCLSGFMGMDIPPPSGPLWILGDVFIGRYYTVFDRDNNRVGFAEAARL

[4] = molecular target: T2, Beta-secretase 1; experiment: Compound (>1 mM ) was tested for inhibition of Beta-secretase 1 (BACE 1) expressed in insect cell using baculovirus; Not inhibited

SMILES | Ki [1] [µM] | Ki [2] [µM] | Ki [3] [µM] | Activity [4]
CC(=O)OCC[C@H](C[C@H](O)[C@H](Cc1ccccc1)NC(=O)C[C@H](NC(=O)CC(C)C)C(=O)O)C(=O)NCC(C)C | 1.9 | 2.7 | 2.2 | 
CC(C)CC(=O)N[C@H](C(=O)N[C@H](C(=O)N[C@@H](CC(C)C)[C@@H](O)CC(=O)N[C@@H](C)C(=O)N[C@@H](CC(C)C)[C@@H](O)CC(=O)O)C(C)C)C(C)C |  |  |  | No inhibition

More lines, now with the values ahead:

Ki [1] [µM] | Ki [2] [µM] | Ki [3] [µM] | Activity [4] | SMILES
73.6 | 1.7 | 79.7 |  | CC(C)CNC(=O)[C@H](CCC(=O)O)C[C@H](O)[C@H](Cc1ccccc1)NC(=O)C[C@H](NC(=O)CC(C)C)C(=O)O
10.9 | 1.9 | 12.5 |  | CC(C)CNC(=O)[C@H](CCO)C[C@H](O)[C@H](Cc1ccccc1)NC(=O)C[C@H](NC(=O)CC(C)C)C(=O)O
24.4 | 69.5 | 28 |  | CCC[C@H](C[C@H](O)[C@H](Cc1ccccc1)NC(=O)C[C@H](NC(=O)CC(C)C)C(=O)O)C(=O)NCC(C)C
